Test results reported in patent US10677782B2, “Methods of determining interferon having direct inhibitory effects on tumors and uses thereof” (SUPERLAB FAR EAST LIMITED, priority 2013, dated 2020).

What was measured:
[1] = test system: procaspase-3, cleaved caspase-3, procaspase-8, cleaved caspase-8, PARP in A549 cells; assay: Apoptosis-related molecular markers by Western Blot; assay type: cell-based, human; settings: 24 hr or 48 hr; interferons at 10 mcg/ml
Description: (§1) Thereafter, apoptosis-related molecular markers were monitored by Western Blot. The primary antibodies used were mouse monoclonal anti-beta-tubulin (1:2000, Cat #: CW0098A) and mouse monoclonal anti-GAPDH (1:2000, Cat #: CW0100A) (Kangwei Biotechnology, China); mouse monoclonal anti-PARP (1:1000, Cat #: se-2007, Santa Cruz Biotechnology, Inc.); rabbit monoclonal anti-procaspase 3 (1:1000, Cat #: 9665), and rabbit polyclonal anti-cleaved caspase 3 (1:1000, Cat #: 9661) (Cell Signaling Technology, USA); goat polyclonal anti-procaspase 8 (1:1000, Cat #: sc-6136, Santa Cruz Biotechnology, Inc); rabbit monoclonal anti-cleaved caspase 8 (1:1000, Cat #: 9496) (Cell Signaling Technology, USA).

[2] = test system: procaspase-3, cleaved caspase-3, procaspase-8, cleaved caspase-8, PARP in SW620 cells; assay: as above; assay type: cell-based, human; settings: 24 hr or 48 hr; interferons at 10 mcg/ml
Description: as §1

human hepatoma SMMC-7721 = assay: Human hepatoma SMMC-7721 xenografts in nude mice (Example 1); assay type: in vivo; settings: 5 mg/kg i.v.
Description: The test article was used without dilution. It was stored at 4° C. until thawed for injection.
The animals used were 4-6 weeks old male BALB/cA nu/nu mice, weighing about 23±2 g, obtained from the Shanghai Institute of Materia Medica (Shanghai, P.R. China). The study protocol was reviewed by the Committee on the Use and Care of Animals of Shanghai Institute of Materia Medica for compliance with regulations, and Committee approval was obtained prior to study initiation. Wherever possible, procedures used in this study were designed to avoid or minimize discomfort, distress, and pain to the animals. Animals that experience severe or chronic pain or distress that could not be relieved were painlessly euthanized, in accordance to regulations. Animals were housed 6 to a cage. They were ear-marked with ear hole punch identification. The room temperature was maintained at 25° C.±1° C. Lighting was set at 12 hr on and 12 hr off. Food was provided ad libitum. City tap water, filtered with a 5 micrometer (μm) filter, was provided to the animals ad libitum via water bottles. Neither the Study Director nor Huiyang Life Science and Technology Corp. was aware of any contaminant in the food or water that would interfere with or influence the intent and purpose of this study.
The test article (rSIFN-co) and the vehicle control were each administered intratumorally (i.t.). The test article was administered in a volume of 0.05 ml-0.15 ml per mouse per treatment, depending on the group to which the animal was assigned. […] Normal saline was injected in a volume of 0.15 ml per mouse, which was used as vehicle control.
Animals were assigned to treatment groups randomly. Initially, all animals were placed in one large animal cage. For assignment to the study, they were later separately housed, with 6 animals per cage per treatment group. Groups 1 and 2 are Control groups in which the animals were each administered the vehicle every other day after the first treatment. […] The animals in Groups 4, 5 and 6 were each given rSIFN-co every other day after the first treatment at 0.15 mg/mouse (Group 4) or 0.10 mg/mouse (Group 5) or 0.05 mg/mouse (Group 6), respectively. Tumor growth was monitored by measuring the length and width of each tumor twice a week during the course of the study. Each animal was also weighed twice a week during the course of the study.
(§2) Before commencement of this study, the xenografts were passaged twice in nude mice. Under sterile conditions, well-grown tumors were cut into 1.5 mm^3 fragments and one such fragment was injected by trocar needle into the right flank of each study animal. […] Individual tumor size (length and width) was measured twice per week with microcalipers. Tumor volume (V) was calculated using the formula: V=(length×width^2)/2. Individual relative tumor volume (RTV) was calculated using the formula: RTV=Vt/V0, where Vt is the tumor volume on the day of measurement and V0 is the tumor volume on the day of first treatment. Therapeutic effect of the test article or control article was expressed in terms of TIC (%), using the formula: TIC (%) (mean RTV of the treated group/mean RTV of the control group)×100%; and in terms of % Inhibition, using the formula: % Inhibition=100%−T/C %.

[3] = test system: Human Cervical Cancer Hela Xenografts; assay: Human cervical cancer Hela xenografts in nude mice (Example 2); assay type: in vivo; settings: 5 mg/kg i.v.
Description: as §2
Then 1.5 mm^3 fragments were prepared for s.c. implantation into the animals.

[4] = test system: Human Colon Cancer HT-29 Xenografts; assay: Human colon cancer HT-29 xenografts in nude mice (Example 3); assay type: in vivo; settings: 5 mg/kg i.v.
Description: as §2
Then, 1.5 mm^3 fragments were prepared for s.c. implantation into the test animals.

[5] = test system: human lung cancer SPC-A4 xenografts; assay: Human lung cancer SPC-A4 xenografts in nude mice (Example 4); assay type: in vivo; settings: 5 mg/kg i.v.
Description: as §2
The 1.5 mm^3 fragments were then used for s.c. implantation into the test animals.

Row | Structure (SMILES) | level of apoptosis-related molecular markers (procaspase-3, procaspase-8, PARP, cleaved caspase-3, cleaved caspase-8) [1] | level of apoptosis-related molecular markers (procaspase-3, procaspase-8, PARP, cleaved caspase-3, cleaved caspase-8) [2] | TV (mm^3, mean ± SD) (D0) (human hepatoma SMMC-7721; day 0, start of treatment) | TV (mm^3, mean ± SD) (D21) (human hepatoma SMMC-7721; day 21) | TV (mm^3, mean ± SD) (D0) ([3]; day 0, start of treatment) | TV (mm^3, mean ± SD) (D28) ([3]; day 28) | TV (mm^3, mean ± SD) (D0) ([4]; day 0, start of treatment) | TV (mm^3, mean ± SD) (D28) ([4]; day 28) | TV (mm^3, mean ± SD) (D0) ([5]; day 0, start of treatment) | TV (mm^3, mean ± SD) (D21) ([5]; day 21)
1 | O=c1[nH]cc(F)c(=O)[nH]1 [5FU, reference compound] | significant reduction of in the level of procaspase-3, procaspase-8 and PARP, but exhibited an enhanced level of cleaved caspase-3 and cleaved caspase-8 | significant reduction of in the level of procaspase-3, procaspase-8 and PARP, but exhibited an enhanced level of cleaved caspase-3 and cleaved caspase-8 | – | – | – | – | – | – | – | –
2 | CO[C@@]12[C@H](COC(N)=O)C3=C(C(=O)C(C)=C(N)C3=O)N1C[C@@H]1N[C@@H]12 [MMC, Mitomycin C, reference compound] | – | – | 125 ± 35 mm^3 | 621 ± 247 mm^3 | 130 ± 28 mm^3 | 676 ± 358 mm^3 | 132 ± 22 mm^3 | 395 ± 95 mm^3 | 166 ± 42 mm^3 | 1831 ± 540 mm^3
